pIC50: −log10 of the molar value. Like-named read-outs stand apart in the source and are kept apart here.
Key:
[1] = biological target: T1, recombinant human IDE42-1019 (Homo sapiens, UniProt P14735); test: Protease assay with fluorogenic peptide substrate Mca-[…](Dnp)-OH; type: biochemical; details: for IC50 / Emax: fluorogenic peptide Mca-RPPGFSAFK(Dnp)-OH; for IC50: apparent IC50 for compounds with submaximal inhibition, read-out: IC50 (μM) Proteolysis; for Emax: plateau at high inhibitor concentration, read-out: Imax (%) Proteolysis (inhibition maximum)
T1 construct: recombinant human IDE42-1019 (R&D Systems); purchased R&D Systems
T1 sequence (P14735 42-1019): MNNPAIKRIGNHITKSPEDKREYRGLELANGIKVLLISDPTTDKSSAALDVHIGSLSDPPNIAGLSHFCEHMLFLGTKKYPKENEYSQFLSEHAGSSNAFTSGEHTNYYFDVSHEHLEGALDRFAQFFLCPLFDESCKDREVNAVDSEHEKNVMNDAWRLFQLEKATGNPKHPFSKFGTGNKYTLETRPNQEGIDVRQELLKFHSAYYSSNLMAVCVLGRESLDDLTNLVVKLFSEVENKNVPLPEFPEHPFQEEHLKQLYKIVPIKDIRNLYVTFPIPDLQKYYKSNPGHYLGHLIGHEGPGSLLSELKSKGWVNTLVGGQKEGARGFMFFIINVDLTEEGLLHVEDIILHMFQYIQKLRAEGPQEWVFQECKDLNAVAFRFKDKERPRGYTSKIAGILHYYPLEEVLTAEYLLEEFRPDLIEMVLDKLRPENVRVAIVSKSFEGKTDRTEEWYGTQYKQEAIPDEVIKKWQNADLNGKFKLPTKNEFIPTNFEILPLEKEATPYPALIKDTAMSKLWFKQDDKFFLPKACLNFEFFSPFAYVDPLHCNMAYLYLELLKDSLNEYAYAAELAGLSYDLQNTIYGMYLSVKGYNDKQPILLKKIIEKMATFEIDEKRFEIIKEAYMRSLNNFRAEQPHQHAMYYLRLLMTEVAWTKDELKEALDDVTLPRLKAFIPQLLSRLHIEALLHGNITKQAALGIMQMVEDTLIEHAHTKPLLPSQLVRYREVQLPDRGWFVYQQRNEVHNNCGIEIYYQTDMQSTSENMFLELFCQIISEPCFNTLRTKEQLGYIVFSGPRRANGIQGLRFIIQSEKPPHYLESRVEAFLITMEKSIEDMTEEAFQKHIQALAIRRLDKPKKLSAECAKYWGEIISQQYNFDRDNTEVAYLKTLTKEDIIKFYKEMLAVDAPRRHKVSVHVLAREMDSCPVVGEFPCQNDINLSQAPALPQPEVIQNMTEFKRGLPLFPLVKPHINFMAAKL
Procedure: The proteases IDE42-1019, recombinant human IDE42-1019 (R&D Systems), neprilysin (R&D), and angiotensin-converting enzyme (R&D) were assayed using the fluorophore/quencher-tagged peptide substrate Mca-[…](Dnp)-OH (SEQ ID NO: 24) (R&D) according to the manufacturer's instructions and using the recommended buffers (fluorophore Mca=(7-methoxycourmarin-4-yl)acetyl and quencher Dnp=2,4-dinitrophenyl). For IDE the recommended buffer is 50 mM Tris pH 7.5, 1 M NaCl. The enzyme mixtures (48 μL) were transferred to a 96-well plate and combined with 2 μL of inhibitor in DMSO solutions, in 3-fold dilution series. The mixtures were allowed to equilibrate for 10 minutes and the enzymatic reaction was started by addition of substrate peptide in assay buffer (50 μL), mixed, and monitored on a fluorescence plate reader (excitation at 320 nm, emission at 405 nm). Similarly, thimet oligopeptidase (R&D) and neurolysin (R&D) were assayed using substrate Mca-PLGPK(Dnp)-OH (SEQ ID NO: 25) (R&D) according to the manufacturer's instructions and using the recommended buffers. Matrix metalloproteinase-1 (R&D) was activated and assayed according to the manufacturer's instructions with substrate Mca-KPLGL-Dpa-AR-NH2 (SEQ ID NO: 20) (R&D) (quencher DPA=N-3-(2,4,dinitrophenyl)-L-2,3-diaminopropionyl). All assay data points were obtained in duplicate.

[2] = biological target: T2, Human N-His6-IDE42-1019 (E. coli expressed) (Homo sapiens, UniProt P14735); test: Fluorescence anisotropy high-throughput screening assay (displacement of probe FL-6b); type: binding
T2 construct: Human N-His6-IDE42-1019 (E. coli expressed); made in house; host or cells: E. coli (Rosetta 2 (DE3) pLysS, plasmid pTrcHis-A)
T2 sequence (P14735 42-1019): T1 sequence (P14735 42-1019)
Procedure: The fluorescence anisotropy screening method and probe FL-6b are described in PCT application PCT/US2014/064322, incorporated herein by reference.
Human N-His6-IDE42-1019 (E. coli expressed) was mixed with fluorescein-labeled macrocycle FL-6b:
[drawing 802] in 50 mM Tris buffer pH 8.0, with 1 M NaCl, at 25° C. Optimum signal was obtained using a mixture of […] probe FL-6b and 0.5 μM IDE. The “diversity-oriented (DOS) synthesis informer set” compound plates were pinned onto 384-well plates containing the enzyme-probe mixture (50 μL/well). The azetidine screen was pre-printed on 384-well plates and the enzyme-probe mixture was added (50 μL/well). The final compound concentration was 20 μM. IDE inhibitor 6bK was used as a positive control at a final concentration of 1 μM. After 30 minutes of equilibration, the increase in fluorescence anisotropy was recorded using an EnVision spectrophotometer (excitation 492 nm, emission 523 nm). The fluorescence anisotropy was independently measured twice for each screened compound. The Z-scores for each pair of measurements are plotted in FIG. 1A (DOS informer set) and FIG. 1B (azetidines), and average Z-scores are listed for exemplary compounds in Table E1.
Z-scores were calculated based on the raw anisotropy measured for each well according to Eq. 1, wherein x is the raw anisotropy value of the well, μ is the mean of the anisotropy of the negative control wells (DMSO) for the plate, and σ is the standard deviation in anisotropy of the negative control wells (DMSO) for the plate.

[3] = final compound concentration 20 μM (6bK control 1 μM), values without asterisk
[4] = values marked *: from the screen using the diversity-oriented synthesis (DOS) informer set of plates, 20 μM

Structure (SMILES)	IC50 [1]	further results
Cc1ccccc1-c1ccc([C@H]2[C@@H](CO)N3CCCCN(CC4CC4)C[C@@H]23)cc1 [compound 768]	> 100 µM	Average Z-score (Fluorescence anisotropy) [2, 3]: −3.48
Cc1ccccc1-c1ccc(C2C3CN(C(=O)C4CCCCC4)CC2N3)cc1 (stereo not drawn) [C6]	2 µM	Emax [1]: 60%; Average Z-score (Fluorescence anisotropy) [2, 3]: −13.8
CCCNC(=O)N1CC(=O)N2[C@H](CO)[C@H](c3ccc(-c4cccc(C)c4)cc3)[C@@H]2C1 [compound 782]		Average Z-score (Fluorescence anisotropy) [2, 3]: −16.08
COc1ccccc1C#Cc1ccc([C@@H]2[C@H](CO)N3CCCCN(C(=O)C4CCC4)C[C@@H]23)cc1 [compound 930]		Average Z-score (Fluorescence anisotropy) [2, 4]: −10.53*
COc1ccccc1-c1ccc([C@@H]2[C@@H](C#N)N(C(=O)C3CC3)[C@@H]2CO)cc1 [D1]		Average Z-score (Fluorescence anisotropy) [2, 3]: −16.97
COc1cccc(C#Cc2ccc([C@@H]3[C@H](CO)N4C(=O)CN(C(=O)Cc5cccnc5)C[C@@H]34)cc2)c1 [compound 089]		Average Z-score (Fluorescence anisotropy) [2, 3]: −4.11
Cc1cccc(-c2ccc([C@@H]3[C@@H](CO)N4CCCCN(S(=O)(=O)c5ccccc5F)C[C@@H]34)cc2)c1 [compound 688]		Average Z-score (Fluorescence anisotropy) [2, 4]: −27.23*
Cc1ccccc1-c1ccc([C@H]2[C@H]3CN(C(=O)NC4CCCC4)CC(=O)N3[C@H]2CO)cc1 [compound 612]		Emax [1]: 50%
Cc1ccccc1-c1ccc([C@H]2C3CN(S(=O)(=O)c4ccccc4C)CCCCN3[C@@H]2CO)cc1 (stereo partly drawn) [K12]		Emax [1]: 65%
Cc1cccc(-c2ccc(C3CCN(C(=O)c4ccc5c(c4)C4(OC5=O)c5ccc(O)cc5Oc5cc(O)ccc54)CC3)cc2)c1C [A40]	12 µM	
Cc1ccccc1S(=O)(=O)N1CCCCN2C(C1)[C@H](c1ccc(-c3cccc(O)c3)cc1)[C@H]2CO (stereo partly drawn) [K8]		Emax [1]: 100%
Cc1cccc(-c2ccc(C3CCN(S(=O)(=O)c4ccc(F)c5ncccc45)CC3)cc2)c1C [A07]	3 µM	
Cc1cccc(-c2ccc([C@@H]3[C@@H](CO)N4CCCCN(S(=O)(=O)c5ccnn5C(C)C)C[C@@H]34)cc2)c1C [JP-S10]	0.015 µM	
Cc1cccc(-c2ccc(C3CCN(Cc4ccccc4Oc4ccccc4)CC3)cc2)c1C [A33]	7 µM	
COc1ccccc1-c1ccc([C@H]2[C@H](C#N)N[C@@H]2CO)cc1 [D7]		Average Z-score (Fluorescence anisotropy) [2, 3]: −10.49
Cc1cccc(-c2ccc(C3CCN(C(=O)c4ccccc4Oc4ccccc4)CC3)cc2)c1C [A23]	10 µM	
Cc1ccccc1S(=O)(=O)N1CCCCN2[C@H](CO)[C@@H](c3ccc(-c4cccc(C)c4C)cc3)[C@@H]2C1 [B8]		pIC50 ([1]; fluorogenic peptide, FIG. 12, read-out: IC50 for proteolysis): 8.70

Structure (SMILES)	IC50 [1]	further results
Cc1cccc(-c2ccc(C3CCN(S(=O)(=O)c4ccc5c(c4)CCC(=O)N5)CC3)cc2)c1C [A10]	33 µM	
Cc1cccc(-c2ccc(C3CCN(S(=O)(=O)c4ccccc4Oc4ccccc4)CC3)cc2)c1C [A04]	12 µM	
Cc1ccccc1S(=O)(=O)N1CCCCN2[C@H](CO)[C@@H](c3ccc(-c4ccc5c(c4)OCO5)cc3)[C@@H]2C1 [B4]		Emax [1]: 100%
Cc1ccccc1-c1ccc(C2C3CN(Cc4cccnc4)CC2N3)cc1 (stereo not drawn) [C5]		Average Z-score (Fluorescence anisotropy) [2, 3]: −13.95
Cc1ccccc1S(=O)(=O)N1CCCCN2C(C1)[C@H](c1ccc(-c3cccc(F)c3F)cc1)[C@H]2CO (stereo partly drawn) [K15]		Emax [1]: 90%
Cc1cccc(-c2ccc([C@@H]3[C@@H](CO)N4C/C=C\CN(S(=O)(=O)c5ccccc5C)C[C@@H]34)cc2)c1 [B1]	0.2 µM	
Cc1ccccc1S(=O)(=O)N1CCCCN2C(C1)[C@H](c1ccc(-c3cccc(C)c3C)cc1)[C@H]2CO (stereo partly drawn) [K9]		Emax [1]: 65%
Cc1cccc(-c2ccc(C3CCN(C(=O)Oc4cccc5ccccc45)CC3)cc2)c1C [A29]	> 50 µM	
Cc1cccc(-c2ccc([C@@H]3[C@@H](CN(C)C)N4CCCCN(S(=O)(=O)c5ccccc5C(F)(F)F)C[C@@H]34)cc2)c1C [JP-17-DMA]	0.1 µM	
Cc1ccc(C)c(-c2ccc([C@H]3C4CN(S(=O)(=O)c5ccccc5C)CCCCN4[C@@H]3CO)cc2)c1 (stereo partly drawn) [K13]		Emax [1]: 65%
Cc1ccccc1S(=O)(=O)N1CCCCN2C(C1)[C@H](c1ccc(-c3cccc(C)c3C)cc1)[C@H]2CN (stereo partly drawn) [JP-8N]	0.002 µM	
Cc1ccccc1S(=O)(=O)N1CCCCN2C(C1)[C@H](c1ccc(-c3ccc4c(c3)OCO4)cc1)[C@H]2CO (stereo partly drawn) [K5]		Emax [1]: 100%
Cc1cccc(-c2ccc(C3CCN(S(=O)(=O)c4ccc5c(c4)OCCO5)CC3)cc2)c1C [A01]	> 30 µM	
CCCn1nccc1S(=O)(=O)N1C/C=C\CN2C(C1)[C@H](c1ccc(-c3cccc(C)c3C)cc1)[C@H]2CO (stereo partly drawn) [JP-S16]	0.03 µM	
COC[C@@H]1[C@@H](c2ccc(-c3ccc(F)c(C)c3C)cc2)[C@@H]2CN(S(=O)(=O)c3ccccc3C(F)(F)F)CCCCN12 [JP-41-OMe]	0.09 µM	
OC[C@H]1[C@@H](c2ccc(C#Cc3ccccc3F)cc2)[C@@H]2CN(Cc3cncnc3)CCCCN12 [compound 683]	7 µM	Emax [1]: 80%

More lines, main results first:

IC50 [1]	Structure (SMILES)	further results
2.5 µM	Cc1cccc(-c2ccc(N3CCN(C(=O)C4CCCC4)CC3)cc2)c1C [J10]	
0.8 µM	Cc1cc(F)ccc1-c1ccc([C@@H]2[C@@H](CO)N3CCCCN(S(=O)(=O)c4ccccc4C)C[C@@H]23)cc1 [JP-39]	
0.008 µM	O=S(=O)(c1ccccc1C(F)(F)F)N1C/C=C\CN2C(C1)[C@H](c1ccc(-c3cccc(Cl)c3Cl)cc1)[C@H]2CO (stereo partly drawn) [K21]	
> 100 µM	Cc1ccccc1S(=O)(=O)N1CC=C(c2ccc(-c3cccc(C)c3C)cc2)CC1 [J7]	
0.1 µM	Cc1ccccc1S(=O)(=O)N1CCCCN2[C@H](CO)[C@@H](c3ccc(-c4cccc(F)c4C)cc3)[C@@H]2C1 [K20]	
0.8 µM	COc1ccc(C)cc1-c1ccc([C@@H]2[C@@H](CO)N3CCCCN(S(=O)(=O)c4ccccc4C)C[C@@H]23)cc1 [K16]	
0.003 µM	Cc1ccccc1S(=O)(=O)N1C/C=C\CN2C(C1)[C@H](c1ccc(-c3cccc(Cl)c3C)cc1)[C@H]2CO (stereo partly drawn) [JP-28]	
7 µM	CCC(=O)N1[C@H](CO)[C@H](c2ccc(-c3ccccc3OC)cc2)[C@@H]1CNC(C)=O [D3]	Emax [1]: 50%
2.5 µM	Cc1ccccc1S(=O)(=O)N1CCCCN2[C@H](CO)[C@@H](c3ccc(-c4cccc(F)c4)cc3)[C@@H]2C1 [K11]	
4 µM	Cc1ccccc1S(=O)(=O)N1CCCCN2[C@H](CO)[C@@H](c3ccc(-c4cnc(F)c(C)c4)cc3)[C@@H]2C1 [K26]	
